# Data taken from article PMC11356900, “Synthesis, Structural Properties and Biological Activities of Novel Hydrazones of 2-, 3-, 4-Iodobenzoic Acid” (Molecules, 2024).
# Tests used:
# [1] = test system: Staphylococcus aureus ATCC 25923; experiment: Broth microdilution MIC/MBC; details: Staphylococcus aureus, ATCC25923
# [2] = test system: Staphylococcus aureus ATCC 29213; experiment: Broth microdilution MIC/MBC; details: ATCC29213
# [3] = test system: Pseudomonas aeruginosa ATCC 9027; experiment: Broth microdilution MIC/MBC; details: ATCC9027
# [4] = test system: Micrococcus luteus ATCC 10240; experiment: Broth microdilution MIC/MBC; details: Micrococcus luteus, ATCC10240
# [5] = test system: Salmonella typhimurium ATCC 14028; experiment: Broth microdilution MIC/MBC; details: Salmonella enterica
# [6] = test system: Staphylococcus epidermidis ATCC 12228; experiment: Broth microdilution MIC/MBC; details: ATCC12228
# [7] = test system: Klebsiella pneumoniae ATCC 13883; experiment: Broth microdilution MIC/MBC; details: ATCC13883
# Gram-positive bacteria = experiment: Broth microdilution, summary over reference Gram-positive bacteria; assay type: cell-based
# Source text: (§1) Procedures of in vitro antimicrobial assays are described in Supplementary Materials.
# (§2) 2. Microbiology – in vitro antimicrobial activity assays […]
# (§3) using the broth microdilution method according to the European Committee on Antimicrobial Susceptibility Testing (EUCAST) and Clinical and Laboratory Standards Institute guidelines against a panel of reference and clinical or saprophytic strains of mi croorganisms, including the Gram-positive bacteria: Staphylococcus aureus ATCC 43300 (Methi-cillin Resistant S. aureus – MRSA), Staphylococcus aureus ATCC 29213 (Methicillin Susceptible S. aureus – MSSA), Staph-ylococcus epidermidis ATCC 12228, Micrococcus luteus ATCC 10240, Bacillus subtilis ATCC 6633 and Bacillus cereus ATCC 10876), Gram-negative bacteria: Bordetella bronchiseptica ATCC 4617, Escherichia coli ATCC 25922, Klebsiella pneumoniae ATCC 13883, Proteus mirabilis ATCC 12453, Salmonella typhimurium ATCC 14028 and Pseudomonas aeruginosa ATCC 9027, and fungi belonging to yeasts: Candida albicans ATCC 10231, Candida albicans ATCC 2091, Candida parapsilosis ATCC 22019, Candida glabrata ATCC 90030 and Candida krusei ATCC 14243. The microorganisms belonging to ATCC originated from American Type Culture Collection, routinely used for the evaluation of antimicrobials. All the used microbial cultures were first subcultured on nutrient agar or Sabouraud agar at 35°C for 18-24 h or 30°C for 24-48 h for bacteria […]
# (§4) The surface of Mueller-Hinton agar (for bacteria) and RPMI 1640 with MOPS (for fungi) were inoculated with the suspensions of bacterial or fungal species. Microbial suspensions were prepared in sterile saline with an optical density of McFarland standard scale 0.5. The samples containing the compounds were dissolved in dimethyl sulfoxide (DMSO).
# (§5) Furthermore, the bacterial and fungal suspensions put onto the Petri dishes with solid media containing 2 mg/mL of the tested compounds followed were incubated at 37°C for 24h and 30°C for 48h for bacteria and fungi, respectively.
# (§6) The inhibition of microbial growth was estimated comparing with a control culture prepared without any tested sam- […]
# (§7) antifungal compounds, respectively.
# (§8) Subsequently, MIC (Minimal Inhibitory Concentration) of the compounds was examined by the microdilution broth method, using their two-fold dilutions in Mueller-Hinton broth (for bacteria) and RPMI 1640 broth with MOPS (for fungi) prepared in the 96-well polystyrene plates. The final concentrations of the compounds ranged from 1000 to 0.488 µg/mL. Microbial suspensions were prepared in 0.85% NaCl with an optical density of 0.5 McFarland standard. Next each bacterial or fungal suspension was added per each well containing broth and various concentrations of the exam-ined compounds. After incubation, the MIC was assessed spectrophotometrically as the lowest concentration of the […]
# (§9) Appropriate DMSO, growth and sterile controls were carried out. The medium with no tested substances was used as a control The MBC (Minimal Bactericidal Concentration) and MFC (Minimal Fungicidal Concentration) are defined as the lowest concentration of the compounds that is required to kill a particular bacterial or fungal species. The MBC/MFC was determined by removing the culture used for the MIC determination from each well and spotted onto the appro-priate agar medium. The plates were incubated under appropriate conditions for bacteria and fungi. The lowest com-pounds concentration with no visible growth observed was assessed as a bactericidal/fungicidal concentration. All the experiments were repeated three times and the representative data are presented.
# (§10) 1. European Committee for Antimicrobial Susceptibility Testing (EUCAST) Determination of minimum inhibitory con-centrations (MICs) of antibacterial agents by broth dilution. EUCAST discussion document E. Dis 5.1. Clin. Microbiol.
# (§11) 2. Clinical and Laboratory Standards Institute. Reference method for broth dilution antifungal susceptibility testing of […]
# [8] = test system: Staphylococcus aureus ATCC 43300; experiment: Broth microdilution MIC/MBC; details: ATCC43300 / MRSA
# [9] = test system: Bacillus cereus ATCC 10876; experiment: Broth microdilution MIC/MBC; details: Bacillus cereus, ATCC10876
# [10] = test system: Bordetella bronchiseptica ATCC 4617; experiment: Broth microdilution MIC/MBC; details: ATCC4617
# [11] = test system: Candida glabrata ATCC 90030; experiment: Broth microdilution MIC/MFC; assay type: cell-based; details: Nakaseomyces glabratus, ATCC90030, read-out: MIC
# Source text: as §1, §2, §3, §4, §5, §6, §7, §8, §9, §10, §11
# [12] = test system: Candida parapsilosis ATCC 22019; experiment: Broth microdilution MIC/MFC; assay type: cell-based; details: Lodderomyces parapsilosis, ATCC22019, read-out: MIC
# Source text: as §1, §2, §3, §4, §5, §6, §7, §8, §9, §10, §11
# [13] = test system: Candida albicans ATCC 2091; experiment: Broth microdilution MIC/MFC; assay type: cell-based; details: ATCC2091, read-out: MIC
# Source text: as §1, §2, §3, §4, §5, §6, §7, §8, §9, §10, §11
# [14] = test system: Candida albicans ATCC 10231; experiment: Broth microdilution MIC/MFC; assay type: cell-based; details: ATCC10231, read-out: MIC
# Source text: as §1, §2, §3, §4, §5, §6, §7, §8, §9, §10, §11
# [15] = test system: Candida krusei ATCC 14243; experiment: Broth microdilution MIC/MFC; assay type: cell-based; details: Pichia kudriavzevii, ATCC14243, read-out: MIC
# Source text: as §1, §2, §3, §4, §5, §6, §7, §8, §9, §10, §11
# [16] = test system: Proteus mirabilis ATCC 12453; experiment: Broth microdilution MIC/MBC; details: ATCC12453
# [17] = test system: Escherichia coli ATCC 25922; experiment: Broth microdilution MIC/MBC; details: ATCC25922
# [18] = test system: Bacillus subtilis ATCC 6633; experiment: Broth microdilution MIC/MBC; details: ATCC6633
# [19] = test system: Gram-positive bacterial strains; parameters: method as in doi:10.14419/ijac.v5i1.7155; details: mainly Gram-positive bacterial strains; cited from earlier work
Structure (SMILES),MBC [1] [µg/mL],MIC [1] [µg/mL],MBC [2] [µg/mL],MIC [2] [µg/mL],MIC [3] [µg/mL],MBC [4] [µg/mL],MIC [4] [µg/mL],MIC [5] [µg/mL],melting point [°C],MBC [6] [µg/mL],MIC [6] [µg/mL],MIC [7] [µg/mL],MIC (Gram-positive bacteria) [µg/mL],MBC [8] [µg/mL],MIC [8] [µg/mL],MBC [9] [µg/mL],MIC [9] [µg/mL],MIC [10] [µg/mL],MIC [11] [µg/mL],MIC [12] [µg/mL],further results
"O=C(N/N=C/c1cccc([N+](=O)[O-])c1O)c1cccc(I)c1 [Compound 15, N-[(2-hydroxy-3-nitrophenyl)methylidene]-3-iodobenzohydrazide]",> 1000,250,> 1000,250,> 1000,125,31.2,> 1000,190 to 199,125,31.2,> 1000,31.2 to 500,> 1000,1000,250,125,> 1000,> 1000,> 1000,MIC [13]: > 1000 µg/mL; MIC [14]: > 1000 µg/mL; MIC [15]: > 1000 µg/mL; MIC [16]: > 1000 µg/mL; MIC [17]: > 1000 µg/mL; MBC [18]: 500 µg/mL; MIC [18]: 125 µg/mL
"O=C(N/N=C/c1cc(Cl)cc(Cl)c1O)c1cccc(I)c1 [Compound 17, N-[(3,5-dichloro-2-hydroxyphenyl)methylidene]-3-iodobenzohydrazide]",31.2,31.2,15.6,15.6,> 1000,15.6,15.6,> 1000,210 to 212,62.5,15.6,> 1000,7.81 to 31.2,15.6,15.6,15.6,15.6,> 1000,> 1000,> 1000,MIC [13]: > 1000 µg/mL; MIC [14]: > 1000 µg/mL; MIC [15]: > 1000 µg/mL; MIC [16]: > 1000 µg/mL; MIC [17]: > 1000 µg/mL; MBC [18]: 15.6 µg/mL; MIC [18]: 7.81 µg/mL
O=C(NN=Cc1ccc(F)cc1)c1ccccc1 [N-(4-fluorobenzylidene)benzohydrazide],,,,,,,,,,,,,,,,,,,,,zone of bacterial growth inhibition ZOI [19]: 6–7 mm
